# In patent publication US10759803B2, “Asparagine endopeptidase (AEP) inhibitors for managing cancer and compositions related thereto” (priority 2014, dated 2020):
# Columns and labels:
# [1] = BBB-PAMPA permeability assay; assay type: in vitro ADME
# CYP3A4 = CYP3A4 (Homo sapiens, UniProt P08684); assay: CYP inhibition screening, CYP3A4-Midazolam; assay type: in vitro ADME
# CYP3A = assay: CYP inhibition screening, CYP3A-Testosterone; assay type: in vitro ADME
# CYP2C9 = CYP2C9 (Homo sapiens, UniProt P11712); assay: CYP inhibition screening, CYP2C9; assay type: in vitro ADME
# CYP2D6 = CYP2D6 (Homo sapiens, UniProt P10635); assay: CYP inhibition screening, CYP2D6; assay type: in vitro ADME
# CYP2C19 = CYP2C19 (Homo sapiens, UniProt P33261); assay: CYP inhibition screening, CYP2C19; assay type: in vitro ADME
# CYP1A2 = target: T1, CYP1A2 (Homo sapiens, UniProt P05177); assay: CYP inhibition screening, CYP1A2; assay type: in vitro ADME
# T1 sequence (P05177 1-516): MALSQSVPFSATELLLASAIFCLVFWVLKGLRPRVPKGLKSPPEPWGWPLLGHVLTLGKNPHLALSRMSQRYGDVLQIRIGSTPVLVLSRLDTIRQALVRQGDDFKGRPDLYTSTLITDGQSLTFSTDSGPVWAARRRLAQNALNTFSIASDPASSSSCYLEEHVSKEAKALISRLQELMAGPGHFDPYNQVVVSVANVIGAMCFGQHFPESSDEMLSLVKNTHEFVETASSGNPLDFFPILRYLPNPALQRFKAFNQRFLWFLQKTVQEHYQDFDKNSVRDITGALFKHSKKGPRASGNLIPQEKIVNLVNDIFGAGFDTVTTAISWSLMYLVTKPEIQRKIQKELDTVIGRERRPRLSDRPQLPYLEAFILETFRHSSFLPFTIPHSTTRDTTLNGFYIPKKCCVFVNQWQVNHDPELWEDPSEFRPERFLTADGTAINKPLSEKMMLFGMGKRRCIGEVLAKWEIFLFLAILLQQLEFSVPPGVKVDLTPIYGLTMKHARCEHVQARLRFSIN
# AEP [2] = assay: AEP activity in OGD-treated primary neurons; assay type: cell-based; conditions: 0.1 μM or 1.0 μM compound, 5 μM Cbz-Ala-Ala-Asn-AMC
# Protocol: (§1) A. AEP activity, measured in primary neuronal cultures with 5 μM Cbz-Ala-Ala-Asn-AMC (x-axis denotes neurons were treated with 0.1 μM or 1.0 μM specified compound). B. Caspase activity, measured in primary neuronal cultures with 5 μM Ac-Asp-Glu-Val-Asp-AMC. C. Cathepsin activity, measured in primary neuronal cultures with 5 μM D-Val-Leu-Lys-AMC. D. Inhibition of APP cleavage. Lysates of primary cortical neurons pre-incubated with compounds for 30 min, underwent OGD for 4 hrs, were reperfused for 18 hrs (normoxia neurons remained at normoxic conditions). E. APP can be cleaved in a dose-dependent manner. Lysates of primary cortical neurons pre-incubated with compounds for 30 min, underwent OGD for 4 hrs, were reperfused for 18 hrs (normoxia neurons remained at normoxic conditions).
# Depriving cells of oxygen and glucose is a cellular model that is employed to trigger acidosis in cultured cells. The efficacy of the compounds in a cellular model of oxygen-glucose deprivation (OGD) was determined in an effort to mimic the effects of stroke in primary cultured neurons. As a result of depriving neurons of oxygen and glucose-containing medium, AEP activity was doubled (FIG. 7A, ‘DMSO-Norm’ compared to ‘DMSO-OGD’), while Caspase-3 and Cathepsin activities remained relatively unchanged. […]
# [3] = tested on: amyloid precursor protein (APP) cleavage; assay: APP cleavage in OGD-treated primary cortical neurons; assay type: cell-based
# Protocol: as §1
# Depriving cells of oxygen and glucose is a cellular model that is employed to trigger acidosis in cultured cells. The efficacy of the compounds in a cellular model of oxygen-glucose deprivation (OGD) was determined in an effort to mimic the effects of stroke in primary cultured neurons. As a result of depriving neurons of oxygen and glucose-containing medium, AEP activity was doubled (FIG. 7A, ‘DMSO-Norm’ compared to ‘DMSO-OGD’), while Caspase-3 and Cathepsin activities remained relatively unchanged. […] Cleavage of APP is observed in response to only DMSO treatment (FIG. 7D, lane 2), and it appears that upon the treatment of 1 μM of compounds 10, 11, and 12, and just 0.1 μM of compound s31, 38 and 64, the cleavage was blocked, presumably due to AEP inhibition.
# Caco-2 monolayer = Caco-2 monolayer permeability screen; conditions: Table 1
# Protocol: To explore the in vitro ADME profiles of the compounds, additional tests were conducted.
# [4] = Human liver microsomal stability screen; conditions: Human liver microsomes
# [5] = Mouse liver microsomal stability screen; conditions: Mouse liver microsomes
# AEP [6] = target: T2, AEP (Homo sapiens, UniProt Q99538); assay: IC50 assay with purified recombinant AEP; assay type: biochemical; conditions: purified active AEP; read-out: IC50 toward AEP
# T2 construct: tested with purified active AEP, IC50 values for the top 8 candidates were found
# T2 sequence (Q99538 18-323 limits assumed): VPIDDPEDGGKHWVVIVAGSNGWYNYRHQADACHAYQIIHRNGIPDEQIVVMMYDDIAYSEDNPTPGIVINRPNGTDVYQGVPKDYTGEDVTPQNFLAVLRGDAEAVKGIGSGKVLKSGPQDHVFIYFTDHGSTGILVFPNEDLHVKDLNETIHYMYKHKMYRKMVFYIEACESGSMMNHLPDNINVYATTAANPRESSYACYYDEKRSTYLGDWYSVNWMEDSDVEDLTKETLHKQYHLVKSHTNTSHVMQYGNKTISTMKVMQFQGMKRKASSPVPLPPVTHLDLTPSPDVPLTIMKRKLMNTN
# Protocol: Purified recombinant enzyme was incubated with various concentrations of inhibitor in appropriate assay buffers in the presence of increasing concentrations of inhibitor. The formation of fluorescent product was monitored in duplicate reactions and the data was fit to appropriate equations to calculate the IC50 values.
# To identify small-molecule inhibitors of AEP, a high-throughput screen was designed in conjunction with the Emory Chemical Biology Discovery Center. The screen incorporated mouse kidney lysates to assay a 54,384 compound library. […] Additional structural analysis and grouping allowed the compounds to be sorted into 8 distinct backbone families. […] The specificity of the compounds was also determined using four major cysteine proteases (FIG. 2).
# Various concentrations of the appropriate compound were incubated with AEP reaction buffer (50 mM Sodium Citrate pH 5.5, 0.1% CHAPS, 60 mM Na2HPO4, 1 mM EDTA, final pH 6.0) and peptide substrate, 10 μM Cbz-Ala-Ala-Asn-AMC (Bachem). The reaction was initiated upon addition of 50 nM AEP and fluorescent product formation was monitored over 15 min. […] Data were analyzed with GraFit version 5.0.11 software package.
# Cathepsin-L = Cathepsin-L (Homo sapiens, UniProt P07711); assay: Specificity assay against Cathepsin-L; assay type: biochemical
# [7] = target: T3, endogenous AEP in human B lymphoblastoid pala cells (Homo sapiens, UniProt Q99538); assay: AEP inhibition in intact Pala cells; assay type: cell-based; conditions: 2 hrs incubation, residual enzymatic activity in lysate
# T3 construct: human B lymphoblastoid pala cells, which are rich in endogenous AEP; endogenous in cells; host or cells: human B lymphoblastoid Pala cells
# T3 sequence (Q99538 18-323): T2 sequence (Q99538 18-323 limits assumed)
# Protocol: The cells were incubated with inhibitors for 2 hrs then cells washed, harvested and lysed and the residual enzymatic activity was determined. Lysate was normalized by Bradford assay and the experiment was performed in triplicate and the mean results and SEM were plotted.
# In an attempt to assess the activity of the compounds in intact cells, the compounds were incubated with human B lymphoblastoid pala cells, which are rich in endogenous AEP and have been used for inhibiting AEP in cellular assay.
# AEP [8] = target: T2, AEP; assay: DTT / L-cysteine reversibility of AEP inhibition; assay type: biochemical; conditions: 10 mM DTT or L-cysteine added after 15 min
# Protocol: AEP was reacted with specified inhibitor, after 15 min 10 mM DTT or L-cysteine was added to the reaction and the fluorescent signal was read for an additional 15 min. At the end of the second 15 min incubation, the percentage of product formed in the presence of each compound was determined in comparison to the DMSO control reaction.
# Although it is not intended that embodiments of this disclosure be limited by any particular mechanism, to gain additional insight into the mechanism utilized by the inhibitors for abrogation of AEP activity, their reversibility in the presence of free thiols was determined. The addition of a strong reducing agent, such as DTT, or a weaker reducing agent, L-cysteine, to an inhibited reaction can be used to out-compete the inhibitory agent and restore catalytic activity to an enzyme with an active-site thiol residue. Here, a similar approach was used by adding a reducing agent, either DTT or L-cysteine, to a reaction, in which AEP had been incubated with a specified inhibitor, in an attempt to reverse the effects of the inhibitor. […] For compounds BB1 and 38, this increase in enzymatic activity may be due to the reduction of a disulfide linkage between the inhibitor and the enzyme, since these compounds contain thiols. Compound 10 contains a thiocyanate and may undergoes nucleophilic attack by the enzyme's active-site thiolate to form a thioimidate enzyme-inhibitor complex. Under acidic conditions, this complex is reducible by either a strong reducing agent, such as DTT, or the weaker L-cysteine.
# AEP [9] = target: T2, AEP; assay: Inhibition kinetics assays (steady-state, Z-AAN-AMC); assay type: biochemical; conditions: competitive inhibition
# Protocol: (§2) KI values for each inhibitor were determined by global fits to the competitive inhibition equation. C. Time course inactivation assays were used to generate progress curves, depicting product formation as a function of time. […] E. Time course inactivation assays were used to generate progress curves, depicting product formation as a function of time. Pseudo first-order rate constants were obtained at each concentration of compound BB1. F. Re-plot of the pseudo first-order rate constants, kobs, vs. the concentration of compound BB1.
# (§3) A. Michaelis-Menten plots displaying competitive inhibition of AEP. The inhibition constant, K1, was determined from the globally fit data. B. Double reciprocal Lineweaver-Burk plots also displaying competitive inhibition. C. […] DC. A plot of the corrected kobs values obtained from each curve in (B) versus the concentration of compound 38, which enabled the calculation of the second-order rate constant, kinact/KI to be determined to measure the potency of the inhibitor.
# To determine the inhibition constants and the mechanism by which compound 38 inhibits AEP, the steady-state kinetic parameters for the hydrolysis of the peptide substrate, Z-AAN-AMC, were determined in the absence or presence of increasing concentrations of inhibitor. In these assays, specified concentrations of the inhibitor were pre-incubated with substrate for 10 min at 37° C., then 50 nM AEP was added to initiate the reaction, which was quenched after 10 min. […]
# In the equations, Kii is the intercept Ki, and Kis is the slope Ki. The mode of the inhibition induced by the compounds on AEP was determined by the best fit of the data to equations 1-4. […]
# AEP [10] = target: T2, AEP; assay: Time course inactivation assays; assay type: biochemical
# Protocol: as §2, §3
# Progress curves were generated by incubating 5 μM Z-AAN-AMC and the specified concentration of inhibitor in assay buffer at 37° C. for 10 min. The reaction was initiated by the addition of 50 nM AEP and quenched after 10 min. The concentration of the product was determined from an AMC standard curve and the data was fit by nonlinear regression. Since the curves were nonlinear, they were fit to equation 5, using the GraFit version 5.0.11 software package, [Product]=vi(1−e^−kobs.app*t)/kobs.app (eq 5), where vi is the initial velocity, kobs.app is the apparent pseudo-first order rate constant for inactivation, and t is time. Equation 6, kobs=[…] (eq 6), was used to correct the apparent pseudo-first-order inactivation rate constants, obtained from this analysis, for substrate concentration and the pseudo-first-order inactivation rate constants, i.e. kobs, thus obtained, were plotted against the tested inhibitor concentrations. […]
# CYP3A4, sequence (P08684 whole entry): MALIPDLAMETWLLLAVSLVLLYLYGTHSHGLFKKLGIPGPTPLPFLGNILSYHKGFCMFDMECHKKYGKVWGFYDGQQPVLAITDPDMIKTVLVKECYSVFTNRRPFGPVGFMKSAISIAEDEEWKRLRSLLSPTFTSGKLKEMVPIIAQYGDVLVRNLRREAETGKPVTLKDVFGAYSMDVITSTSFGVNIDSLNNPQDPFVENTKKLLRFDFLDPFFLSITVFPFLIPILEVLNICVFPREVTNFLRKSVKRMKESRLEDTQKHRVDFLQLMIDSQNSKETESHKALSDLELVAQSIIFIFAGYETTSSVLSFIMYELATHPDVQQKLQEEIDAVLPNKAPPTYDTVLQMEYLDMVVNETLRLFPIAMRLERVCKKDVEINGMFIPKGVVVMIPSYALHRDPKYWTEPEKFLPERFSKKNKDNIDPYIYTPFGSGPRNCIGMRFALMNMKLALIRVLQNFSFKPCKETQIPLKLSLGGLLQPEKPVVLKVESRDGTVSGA
# CYP2C19, sequence (P33261 whole entry): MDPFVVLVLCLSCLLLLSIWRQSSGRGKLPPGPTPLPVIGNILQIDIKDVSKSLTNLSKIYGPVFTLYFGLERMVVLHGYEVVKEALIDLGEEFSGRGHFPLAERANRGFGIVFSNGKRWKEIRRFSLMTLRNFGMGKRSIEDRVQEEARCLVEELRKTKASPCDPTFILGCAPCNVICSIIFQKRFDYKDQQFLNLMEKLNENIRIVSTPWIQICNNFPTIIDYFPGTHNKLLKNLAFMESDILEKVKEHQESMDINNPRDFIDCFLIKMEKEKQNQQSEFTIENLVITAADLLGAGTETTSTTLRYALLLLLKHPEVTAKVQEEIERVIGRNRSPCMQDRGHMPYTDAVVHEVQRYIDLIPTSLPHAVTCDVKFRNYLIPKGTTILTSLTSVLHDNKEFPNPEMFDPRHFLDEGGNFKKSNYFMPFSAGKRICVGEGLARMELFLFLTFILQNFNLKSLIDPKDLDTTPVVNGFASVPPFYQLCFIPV
# CYP2C9, sequence (P11712 whole entry): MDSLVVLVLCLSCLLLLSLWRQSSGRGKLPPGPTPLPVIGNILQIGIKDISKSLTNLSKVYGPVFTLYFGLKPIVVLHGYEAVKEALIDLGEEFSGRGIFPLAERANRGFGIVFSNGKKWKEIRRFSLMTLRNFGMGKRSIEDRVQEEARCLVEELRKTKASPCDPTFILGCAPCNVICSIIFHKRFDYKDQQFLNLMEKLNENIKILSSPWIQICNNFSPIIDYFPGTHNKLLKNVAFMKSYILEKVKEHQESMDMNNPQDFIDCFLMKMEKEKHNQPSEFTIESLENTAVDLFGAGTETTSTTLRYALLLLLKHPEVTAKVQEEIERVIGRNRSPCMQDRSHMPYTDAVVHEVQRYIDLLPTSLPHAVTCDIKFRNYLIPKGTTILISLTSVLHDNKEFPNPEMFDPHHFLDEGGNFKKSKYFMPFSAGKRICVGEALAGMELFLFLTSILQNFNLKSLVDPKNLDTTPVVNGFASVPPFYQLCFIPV
# CYP2D6, sequence (P10635 whole entry): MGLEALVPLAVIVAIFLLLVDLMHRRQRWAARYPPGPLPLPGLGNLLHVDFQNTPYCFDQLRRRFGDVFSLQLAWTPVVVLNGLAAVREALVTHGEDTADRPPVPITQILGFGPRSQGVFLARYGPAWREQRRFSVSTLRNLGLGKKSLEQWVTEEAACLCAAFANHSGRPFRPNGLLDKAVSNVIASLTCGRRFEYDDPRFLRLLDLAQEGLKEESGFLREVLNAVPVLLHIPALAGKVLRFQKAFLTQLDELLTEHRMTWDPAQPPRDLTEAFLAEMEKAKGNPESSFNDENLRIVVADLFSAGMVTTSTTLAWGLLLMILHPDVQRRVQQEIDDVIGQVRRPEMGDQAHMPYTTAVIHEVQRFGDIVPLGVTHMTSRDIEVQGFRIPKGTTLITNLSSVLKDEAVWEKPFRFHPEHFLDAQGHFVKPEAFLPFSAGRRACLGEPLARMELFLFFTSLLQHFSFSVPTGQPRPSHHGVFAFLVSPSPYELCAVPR
# Cathepsin-L, sequence (P07711 114-333, species assumed): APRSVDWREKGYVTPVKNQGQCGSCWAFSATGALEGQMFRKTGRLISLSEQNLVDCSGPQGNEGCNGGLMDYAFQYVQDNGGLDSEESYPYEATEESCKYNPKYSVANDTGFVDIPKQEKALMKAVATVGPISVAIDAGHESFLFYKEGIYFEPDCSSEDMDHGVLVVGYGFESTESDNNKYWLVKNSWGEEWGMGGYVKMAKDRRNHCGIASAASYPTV
smiles,measurement,setting,value
Cc1cccc(NCc2ccc(O)c3ncccc23)c1C [Compound 12],Pe,[1],<LLOQ
same,CYP3A4-Midazolam inhibition,CYP3A4; 3 μM,−2.5%
same,CYP3A4-Midazolam inhibition,CYP3A4; 10 μM,−2.5%
same,CYP3A-Testosterone inhibition,CYP3A; 3 μM,14.2%
same,CYP3A-Testosterone inhibition,CYP3A; 10 μM,27.6%
same,CYP2C9 inhibition,CYP2C9; 3 μM,4.3%
same,CYP2C9 inhibition,CYP2C9; 10 μM,−2.7%
same,CYP2D6 inhibition,CYP2D6; 3 μM,2.9%
same,CYP2D6 inhibition,CYP2D6; 10 μM,−2.6%
same,CYP2C19 inhibition,CYP2C19; 3 μM,13.4%
same,CYP2C19 inhibition,CYP2C19; 10 μM,29.4%
same,CYP1A2 inhibition,CYP1A2; 3 μM,28.4%
same,CYP1A2 inhibition,CYP1A2; 10 μM,44.5%
same,AEP activity in OGD neurons,AEP [2],slight decrease
same,APP cleavage after OGD,[3]; 1 μM compound,blocked
same,"APP cleavage after OGD, dose dependence",[3]; FIG. 7E,dose-dependent decrease
same,A −>B Papp,Caco-2 monolayer,1.4 10^−6 cm · s^−1
same,B −> A Papp,Caco-2 monolayer,3.7 10^−6 cm · s^−1
same,RE,Caco-2 monolayer,2.7
same,Mean Remaining Parent (NADPH-free),[4],1%
same,Mean Remaining Parent (with NADPH),[4]; 30 min,1%
same,Mean Remaining Parent (NADPH-free),[5],0%
same,Mean Remaining Parent (with NADPH),[5],1%
Sc1nnc(Nc2ccccc2)s1 [Compound BB1],IC50,AEP [6],~130 nM
same,selectivity for AEP over Cathepsin-L,Cathepsin-L,about 38 fold
same,IC50 in intact Pala cells,[7],slightly larger IC50 values
same,AEP activity after addition of reducing agent (reversibility),AEP [8],regained a substantial amount of activity
same,inhibition constants in words,AEP [9],nanomolar-range
same,"second-order rate constant, kinact/KI",AEP [10],55000 M⁻¹ s⁻¹
